Assay [1] concerns LCHN-Myoblast. The assay is described as follows: ATP assay on LCHN-Myoblast. The format is cell-based, human. The conditions noted are these: after 3 days of treatment (FIG. 10C). The protocol:
Basal media were purchased from HyClone, fetal bovine serum (FBS) was from PeakSerum (Ps-FB3, lot 293Q16), and Glutamax (Glu) and Penicillin/Streptomycin (P/S) were from GIBCO. NCC-CDS-X1 (CIC-DUX4 sarcoma cell line, a generous gift from Tadashi Kondo) cell line was cultured in RPMI with 10% FBS, Glu and P/S, Kitra-SRS (CIC-DUX4 sarcoma cell line, a generous gift from Hidetatsu Otani), 3T3, 293T and C2C12 cell lines were cultured in DMEM/10% FBS/Glu/P/S. The immortalized human myoblast LHCN-M2 cell line was cultured in proliferation medium: F10 supplemented with 20% FBS, 2-mercaptoethanol 1× (GIBCO), 10^−9 M dexamethasone (Sigma), 10 ng/mL bFGF (Peprotech), and Glu/P/S. All cells were cultured at 37° C. in a 5% CO2 atmosphere.
Cell lines were plated in a 96 well dish (1×10^5 cells/well), and the following day were treated with iP300w or its stereoisomers. ATP assays were performed using CellTiter-Glo® Luminescent Cell Viability Assay (Promega) according to the manufacturer's instructions. Luminescence was analyzed on POLARstar Optima Microplate Reader (BMG Labtech, Offenburg, Germany). […]

Assay [2] deals with Ewing sarcoma cell lines (AF573, TC71, A673). The assay is described as follows: Cell viability (ATP) assay in Ewing sarcoma cell lines. The format is cell-based. The settings on record: 0.003 and 0.03 μM, 48 hours. The protocol: (§1) Cell lines were plated in a 96 well dish (1×10^5 cells/well), and the following day were treated with iP300w or its stereoisomers. ATP assays were performed using CellTiter-Glo® Luminescent Cell Viability Assay (Promega) according to the manufacturer's instructions. Luminescence was analyzed on POLARstar Optima Microplate Reader (BMG Labtech, Offenburg, Germany).
To determine whether iP300w was particularly active against CDS cells, vis-à-vis other related cancer cell lines, viability of 3 different Ewing sarcoma (ES) cell lines and several different immortalized cell lines treated with iP300w were compared. […] Furthermore, gene expression analyses confirmed the specificity of iP300w to CDS.

Assay [3] deals with Kitra-SRS cells. The assay is described as follows: Immunofluorescence for Ki-67 in Kitra-SRS cells. In kind it is cell-based, human. The settings on record: 24 hours, 0.3 μM. The procedure: For western blot analyses, cells were lysed with RIPA buffer supplemented with protease inhibitor cocktail (Complete, Roche), and proteins were separated on 10% SDS-PAGE gels, then transferred to PVDF membranes. Antibodies were diluted in 5% skim milk in TBST and incubated overnight at 4° C. or 1 hour at RT. An appropriate secondary HRP conjugated antibody was incubated for 1 hour at RT. Membranes were then washed with TBST, and signal was visualized using Pierce ECL western blotting substrate (Thermo Scientific). For immunofluorescence, cells cultured in 96 well plates were fixed in 4% PFA for 10 min., washed twice with PBS, permeabilized with 0.3% Triton X for 30 min, and blocked with 3% BSA for 1 hour at R/T. Primary antibodies were diluted in 3% BSA and incubated o/n at 4° C. An appropriate conjugated secondary antibody was applied for 60 min at RT. Nuclei were visualized using DAPI (1:5000, Sigma). […]

In assay [4] the test system is HTC116, MKN28, KATO3 colorectal cancer cells. The assay is described as follows: Cell viability (ATP) assay in colorectal cancer cells. The conditions noted are these: serial dilutions, 48 hours. The format is cell-based. The procedure:
as §1
(§2) Pancreatic and colorectal cancer cell lines were treated with iP300w to further distinguish its specificity to CDS from general cytotoxicity. p300/CBP have been correlated with the invasive and migratory properties of pancreatic and colorectal cancers (Iyer, N. G. et al., Proceedings of the National Academy of Sciences of the United States of America 101, 7386-7391 (2004); and Paladino, D. et al, Oncotarget 7, 7253-7267 (2016)). […] This further supports the specific efficacy of iP300w against cancers bearing p300-dependent oncogenic fusion transcription factors (such as CIC-DUX4), vis-à-vis cancers that may show some degree of growth inhibition by iP300w due simply to p300-dependent proliferative pathways.

Test in assay [5]: as above
In kind it is cell-based. The conditions noted are these: cancer and colorectal cell lines expected to have a general p300/CBP dependence. The protocol: as §1, §2

`CNC(=O)Cn1cc(-c2ccc3c(c2)[C@H](F)C[C@]32NC(=O)N(CC(=O)N(Cc3ccc(F)cc3)[C@@H](C)C(F)(F)F)C2=O)cn1` (single isomer, unassigned) [iP300w]: the “concentration giving mild suppression of proliferation” value in assay [1] is at least 0.3 µM. In addition, the “effect on cell viability” value is “only effective for CIC-DUX4 driven sarcomas and not for the other cell lines” in assay [2]; “no significant effect on cell viability” in assay [4]. In addition, the Ki-67 positive staining entry in assay [3] is listed as “almost complete absence of Ki-67 positive staining”. Besides, in assay [5], the “concentration at which growth inhibition is first observed” value was at least 0.3 µM.

Source of the values: US12383534B2, “Methods for treating cancer” (REGENTS OF THE UNIVERSITY OF MINNESOTA, priority 2021, dated 2025).
